According to ChEMBL document CHEMBL1201862, “PubChem BioAssay data set” (2004):
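Briefly, cells in 96-well plates were exposed to five compound concentrations for 48 h, and endpoints were estimated by linear interpolation. The concentration for 50% growth inhibition is given as GI50.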 The source made the active and inactive calls. Cut-off read from the data, not from the text of the source: active = GI50 up to about 1.1 µM and inactive = higher.

What was measured:
Test in all cases: NCI-60 cell line screen, 48 h
HL-60 = tested on: HL-60
NCI/ADR-RES = tested on: NCI/ADR-RES
DU-145 = tested on: DU-145
ACHN = tested on: ACHN
OVCAR-3 = tested on: OVCAR-3
SN12C = tested on: SN12C
A498 = tested on: A498
U-251 = tested on: U-251
MDA-MB-435 = tested on: MDA-MB-435
UACC-62 = tested on: UACC-62
SK-MEL-2 = tested on: SK-MEL-2
M14 = tested on: M14
SF-539 = tested on: SF-539
Hs-578T = tested on: Hs-578T
OVCAR-8 = tested on: OVCAR-8
Malme-3M = tested on: Malme-3M
786-0 = tested on: 786-0
TK-10 = tested on: TK-10
PC-3 = tested on: PC-3
MDA-MB-231 = tested on: MDA-MB-231
A549 = tested on: A549
RPMI-8226 = tested on: RPMI-8226
SK-OV-3 = tested on: SK-OV-3
MOLT-4 = tested on: MOLT-4
SW-620 = tested on: SW-620
OVCAR-4 = tested on: OVCAR-4
HCT-116 = tested on: HCT-116
IGROV-1 = tested on: IGROV-1
BT-549 = tested on: BT-549
HCC 2998 = tested on: HCC 2998
NCI-H23 = tested on: NCI-H23
COLO 205 = tested on: COLO 205
OVCAR-5 = tested on: OVCAR-5
LOX IMVI = tested on: LOX IMVI
UO-31 = tested on: UO-31
MCF7 = tested on: MCF7
HCT-15 = tested on: HCT-15
EKVX = tested on: EKVX
CCRF-CEM = tested on: CCRF-CEM
SF-268 = tested on: SF-268
SNB-19 = tested on: SNB-19
SK-MEL-5 = tested on: SK-MEL-5
SK-MEL-28 = tested on: SK-MEL-28
HOP-92 = tested on: HOP-92
UACC-257 = tested on: UACC-257
K562 = tested on: K562
HOP-62 = tested on: HOP-62
NCI-H522 = tested on: NCI-H522
SF-295 = tested on: SF-295
HT-29 = tested on: HT-29
NCI-H460 = tested on: NCI-H460
KM12 = tested on: KM12
T47D = tested on: T47D
MDA-N = tested on: MDA-N
RXF 393 = tested on: RXF 393
CAKI-1 = tested on: CAKI-1
SR = tested on: SR
SNB-75 = tested on: SNB-75

In the case of `CCOC(=O)Nc1ccc(S(=O)(=O)Nn2cnnc2)cc1`, the GI50 (HL-60) is reported as 38 µM (inactive), the GI50 (NCI/ADR-RES) is reported as 37.1 µM (inactive) and the GI50 (DU-145) is reported as > 100 µM (inactive). For the same molecule, the GI50 (ACHN) was 81.3 µM (inactive), the GI50 (OVCAR-3) was 27.9 µM (inactive) and the GI50 (SN12C) was 53.1 µM (inactive). The GI50 (A498) was 27.2 µM (inactive), the GI50 (U-251) was 44.3 µM (inactive) and the GI50 (MDA-MB-435) was 16.4 µM (inactive). The GI50 (UACC-62) was 33.8 µM (inactive), the GI50 (SK-MEL-2) was 72.6 µM (inactive) and the GI50 (M14) was 43 µM (inactive). For the same molecule, the GI50 (SF-539) was 22.4 µM (inactive), the GI50 (Hs-578T) was 57.9 µM (inactive) and the GI50 (OVCAR-8) was > 100 µM (inactive). The GI50 (Malme-3M) was 44.3 µM (inactive), the GI50 (786-0) was 46.5 µM (inactive) and the GI50 (TK-10) was 85.5 µM (inactive). The GI50 (PC-3) was 57.4 µM (inactive), the GI50 (MDA-MB-231) was 76.6 µM (inactive) and the GI50 (A549) was 60.4 µM (inactive). The GI50 (RPMI-8226) was 22.6 µM (inactive), the GI50 (SK-OV-3) was 62.7 µM (inactive) and the GI50 (MOLT-4) was 50.7 µM (inactive). For the same molecule, the GI50 (SW-620) was 33.3 µM (inactive), the GI50 (OVCAR-4) was 17.5 µM (inactive) and the GI50 (HCT-116) was 30.1 µM (inactive). The GI50 (IGROV-1) was 40.7 µM (inactive), the GI50 (BT-549) was 53.5 µM (inactive) and the GI50 (HCC 2998) was 33.8 µM (inactive). The GI50 (NCI-H23) was > 100 µM (inactive), the GI50 (COLO 205) was 39.9 µM (inactive) and the GI50 (OVCAR-5) was > 100 µM (inactive). The GI50 (LOX IMVI) was 69.3 µM (inactive), the GI50 (UO-31) was 60.1 µM (inactive) and the GI50 (MCF7) was 41.2 µM (inactive). The GI50 (HCT-15) was 50.1 µM, the GI50 (EKVX) was > 100 µM (inactive) and the GI50 (CCRF-CEM) was 23.9 µM (inactive). For the same molecule, the GI50 (SF-268) was 83.2 µM (inactive), the GI50 (SNB-19) was > 100 µM (inactive) and the GI50 (SK-MEL-5) was 23.9 µM (inactive). For the same molecule, the GI50 (SK-MEL-28) was 42.8 µM (inactive), the GI50 (HOP-92) was 63.7 µM (inactive) and the GI50 (UACC-257) was > 100 µM (inactive). The GI50 (K562) was 27.2 µM (inactive), the GI50 (HOP-62) was 51.6 µM (inactive) and the GI50 (NCI-H522) was 48.1 µM (inactive). The GI50 (SF-295) was 31.5 µM (inactive), the GI50 (HT-29) was 20.3 µM (inactive) and the GI50 (NCI-H460) was 50 µM (inactive). The GI50 (KM12) was 36.2 µM (inactive), the GI50 (T47D) was > 100 µM (inactive) and the GI50 (MDA-N) was 22 µM (inactive). The GI50 (RXF 393) was > 100 µM (inactive), the GI50 (CAKI-1) was 47.1 µM (inactive) and the GI50 (SR) was 23.9 µM (inactive).

`C=CCNC1=C2C[C@@H](C)C[C@@H](OC)[C@H](OC(=O)CN(C)C)[C@H](C)/C=C(\C)[C@@H](OC(N)=O)[C@H](OC)/C=C\C=C(/C)C(=O)NC(=CC1=O)C2=O` was tested, and the GI50 (HL-60) was 0.406 µM (active), the GI50 (NCI/ADR-RES) was 8.22 µM (inactive) and the GI50 (DU-145) was < 0.01 µM (active). The GI50 (ACHN) was 0.802 µM (active), the GI50 (OVCAR-3) was 0.286 µM (active) and the GI50 (SN12C) was 0.0689 µM (active). The GI50 (A498) was 0.262 µM (active), the GI50 (U-251) was 0.188 µM (active) and the GI50 (MDA-MB-435) was 0.042 µM (active). For the same molecule, the GI50 (UACC-62) was 0.0467 µM (active), the GI50 (SK-MEL-2) was 0.0608 µM (active) and the GI50 (M14) was 0.0485 µM (active). For the same molecule, the GI50 (SF-539) was 0.071 µM (active), the GI50 (Hs-578T) was 13.3 µM (inactive) and the GI50 (OVCAR-8) was 0.163 µM (active). The GI50 (Malme-3M) was 0.0409 µM (active), the GI50 (786-0) was 0.671 µM (active) and the GI50 (TK-10) was 0.0543 µM (active). The GI50 (PC-3) was 0.0495 µM (active), the GI50 (MDA-MB-231) was 2.56 µM (inactive) and the GI50 (A549) was 0.0562 µM (active). For the same molecule, the GI50 (RPMI-8226) was 0.832 µM (active), the GI50 (SK-OV-3) was 0.0279 µM (active) and the GI50 (MOLT-4) was 1.43 µM (inactive). For the same molecule, the GI50 (SNB-75) was 0.114 µM (active), the GI50 (SW-620) was 0.0228 µM (active) and the GI50 (OVCAR-4) was 3.41 µM (inactive). For the same molecule, the GI50 (HCT-116) was 0.0871 µM (active), the GI50 (IGROV-1) was 0.0942 µM (active) and the GI50 (BT-549) was 4.72 µM (inactive). For the same molecule, the GI50 (HCC 2998) was 0.0434 µM (active), the GI50 (NCI-H23) was 0.043 µM (active) and the GI50 (COLO 205) was < 0.0126 µM (active). The GI50 (OVCAR-5) was 10.3 µM (inactive), the GI50 (LOX IMVI) was 0.0641 µM (active) and the GI50 (UO-31) was 0.757 µM (active). For the same molecule, the GI50 (MCF7) was 0.0245 µM (active), the GI50 (HCT-15) was 0.535 µM and the GI50 (EKVX) was 1.28 µM (inactive). The GI50 (CCRF-CEM) was 3.08 µM (inactive), the GI50 (SF-268) was 2.54 µM (inactive) and the GI50 (SNB-19) was 0.585 µM (active). For the same molecule, the GI50 (SK-MEL-5) was 0.0538 µM (active), the GI50 (SK-MEL-28) was 0.0897 µM (active) and the GI50 (HOP-92) was 6.12 µM (inactive). The GI50 (UACC-257) was 0.0748 µM (active), the GI50 (K562) was 0.151 µM (active) and the GI50 (HOP-62) was 0.0604 µM (active). For the same molecule, the GI50 (NCI-H522) was 0.183 µM (active), the GI50 (SF-295) was 0.128 µM (active) and the GI50 (HT-29) was < 0.01 µM (active). The GI50 (NCI-H460) was 0.0479 µM (active), the GI50 (KM12) was 0.024 µM (active) and the GI50 (T47D) was 4.82 µM (inactive). For the same molecule, the GI50 (MDA-N) was 0.0281 µM (active), the GI50 (RXF 393) was 1.78 µM (inactive) and the GI50 (CAKI-1) was 1.29 µM (inactive). The GI50 (SR) was < 0.0113 µM (active).
